Tests used:
[1] = biological target: Neuronal acetylcholine receptor; alpha4/beta2 (Homo sapiens, UniProt P17787+P43681); assay: Binding affinity to nACh alpha4beta2 receptor (unknown origin) assessed as inhibition constant; type: protein-complex assay
[2] = Dissociation constant, pKa of the compound; type: physicochemical
[3] = Lipophilicity, logP of the compound; details: octanol/water
[4] = Lipophilicity, logD of compound at pH 7; details: buffer
[5] = Drug distribution in rat brain assessed as dissociation constant; type: ADME, tissue-based
[6] = Drug distribution in rat brain assessed as maximum binding; type: ADME, tissue-based; details: in vivo
[7] = biological target: Neuronal acetylcholine receptor subunit alpha-7 (Rattus norvegicus, UniProt Q05941); assay: Binding affinity to rat nACh alpha7 receptor assessed as inhibition constant
[8] = Stability in human plasma incubated upto 60 mins; type: ADME, cell-free; details: read-out: Stability
[9] = biological target: Neuronal acetylcholine receptor subunit alpha-7 (Homo sapiens, UniProt P36544); assay: Binding affinity to human nACh alpha7 receptor assessed as inhibition constant
[10] = biological target: T1, Alpha-2C adrenergic receptor (Homo sapiens, UniProt P18825); assay: Binding affinity to alpha2C receptor (unknown origin)
T1 sequence (P18825 whole entry): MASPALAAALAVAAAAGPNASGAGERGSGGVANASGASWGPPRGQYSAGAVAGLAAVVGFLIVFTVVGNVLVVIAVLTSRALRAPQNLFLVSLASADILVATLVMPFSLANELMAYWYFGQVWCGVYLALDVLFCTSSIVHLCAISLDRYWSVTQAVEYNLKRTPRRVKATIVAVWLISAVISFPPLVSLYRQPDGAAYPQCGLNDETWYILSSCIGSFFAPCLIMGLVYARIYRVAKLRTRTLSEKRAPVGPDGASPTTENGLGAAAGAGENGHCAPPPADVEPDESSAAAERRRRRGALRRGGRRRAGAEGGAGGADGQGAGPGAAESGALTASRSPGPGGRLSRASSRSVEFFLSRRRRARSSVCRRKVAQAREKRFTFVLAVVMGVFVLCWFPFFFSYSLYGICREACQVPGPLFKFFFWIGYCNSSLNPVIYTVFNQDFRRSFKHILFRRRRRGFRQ

[11] = biological target: T2, Alpha-2A adrenergic receptor (Homo sapiens, UniProt P08913); assay: Binding affinity to alpha2A receptor (unknown origin)
T2 sequence (P08913 whole entry): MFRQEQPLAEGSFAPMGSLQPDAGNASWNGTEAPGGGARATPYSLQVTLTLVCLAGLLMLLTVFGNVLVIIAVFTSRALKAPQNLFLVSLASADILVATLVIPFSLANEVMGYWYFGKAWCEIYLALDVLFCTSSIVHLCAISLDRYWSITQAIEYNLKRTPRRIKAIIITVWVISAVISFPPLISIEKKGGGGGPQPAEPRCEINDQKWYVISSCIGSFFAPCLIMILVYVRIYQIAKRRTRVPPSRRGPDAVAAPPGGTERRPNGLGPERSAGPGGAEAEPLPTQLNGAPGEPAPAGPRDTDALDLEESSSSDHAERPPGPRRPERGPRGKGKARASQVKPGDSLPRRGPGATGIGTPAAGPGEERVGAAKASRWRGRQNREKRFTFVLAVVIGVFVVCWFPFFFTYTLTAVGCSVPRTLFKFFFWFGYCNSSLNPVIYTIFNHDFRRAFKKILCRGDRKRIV

[12] = biological target: T3, Alpha-2B adrenergic receptor (Homo sapiens, UniProt P18089); assay: Binding affinity to alpha2B receptor (unknown origin)
T3 sequence (P18089 whole entry): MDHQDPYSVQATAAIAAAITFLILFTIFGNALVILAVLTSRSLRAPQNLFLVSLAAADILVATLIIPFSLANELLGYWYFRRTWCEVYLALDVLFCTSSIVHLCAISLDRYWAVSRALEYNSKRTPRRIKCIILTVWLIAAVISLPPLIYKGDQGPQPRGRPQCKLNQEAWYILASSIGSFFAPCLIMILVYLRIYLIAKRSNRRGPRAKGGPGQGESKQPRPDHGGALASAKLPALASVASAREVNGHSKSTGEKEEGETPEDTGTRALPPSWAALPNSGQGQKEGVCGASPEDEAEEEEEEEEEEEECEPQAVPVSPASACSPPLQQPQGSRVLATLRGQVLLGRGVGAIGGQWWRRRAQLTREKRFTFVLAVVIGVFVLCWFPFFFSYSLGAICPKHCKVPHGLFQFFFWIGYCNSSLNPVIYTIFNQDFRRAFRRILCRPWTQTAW

[13] = Stability in Sprague-Dawley rat plasma assessed as parent compound remaining measured after 60 mins; type: ADME, cell-free; details: read-out: Stability
[14] = Drug distribution in Sprague-Dawley rat liver at 1 mg/kg, iv measured at 10 mins in presence of ETO; type: ADME, organism-based; details: in vivo
[15] = Drug distribution in Sprague-Dawley rat adrenal gland at 1 mg/kg, iv measured at 10 mins in presence of ETO; type: ADME, organism-based; details: in vivo
[16] = Stability in Sprague-Dawley rat plasma assessed as parent compound remaining measured after 30 mins; type: ADME, cell-free; details: read-out: Stability
[17] = Stability in Sprague-Dawley rat plasma assessed as parent compound remaining measured after 10 mins; type: ADME, cell-free; details: read-out: Stability

Neuronal acetylcholine receptor subunit alpha-7 (Homo sapiens, UniProt P36544), sequence (P36544 whole entry): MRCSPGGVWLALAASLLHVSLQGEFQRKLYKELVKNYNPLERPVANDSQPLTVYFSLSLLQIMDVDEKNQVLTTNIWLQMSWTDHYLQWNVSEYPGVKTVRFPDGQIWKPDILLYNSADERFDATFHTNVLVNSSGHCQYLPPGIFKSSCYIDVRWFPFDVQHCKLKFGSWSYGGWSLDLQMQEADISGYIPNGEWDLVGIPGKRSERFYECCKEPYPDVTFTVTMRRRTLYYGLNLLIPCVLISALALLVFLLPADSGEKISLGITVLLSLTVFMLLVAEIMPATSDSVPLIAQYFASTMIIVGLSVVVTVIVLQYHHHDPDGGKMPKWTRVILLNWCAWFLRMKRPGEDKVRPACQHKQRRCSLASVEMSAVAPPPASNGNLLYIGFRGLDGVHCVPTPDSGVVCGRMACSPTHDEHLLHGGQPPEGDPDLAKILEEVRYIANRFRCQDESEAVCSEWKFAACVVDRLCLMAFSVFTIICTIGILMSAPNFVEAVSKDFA
Neuronal acetylcholine receptor; alpha4/beta2, sequence (P17787 whole entry): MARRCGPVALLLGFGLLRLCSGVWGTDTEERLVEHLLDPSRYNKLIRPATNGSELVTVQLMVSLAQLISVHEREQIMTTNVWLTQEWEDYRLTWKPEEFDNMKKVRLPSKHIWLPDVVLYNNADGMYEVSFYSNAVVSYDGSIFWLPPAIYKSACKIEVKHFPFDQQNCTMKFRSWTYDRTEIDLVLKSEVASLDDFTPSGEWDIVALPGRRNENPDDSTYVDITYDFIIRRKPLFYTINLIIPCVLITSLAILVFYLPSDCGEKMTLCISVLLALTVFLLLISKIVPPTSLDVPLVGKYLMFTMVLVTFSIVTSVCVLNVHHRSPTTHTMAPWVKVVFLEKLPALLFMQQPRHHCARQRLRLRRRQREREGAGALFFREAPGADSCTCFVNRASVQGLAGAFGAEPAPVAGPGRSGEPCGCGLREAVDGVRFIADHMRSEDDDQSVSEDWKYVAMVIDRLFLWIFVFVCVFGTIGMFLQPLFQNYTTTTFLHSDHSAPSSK
Neuronal acetylcholine receptor; alpha4/beta2, sequence (P43681 whole entry): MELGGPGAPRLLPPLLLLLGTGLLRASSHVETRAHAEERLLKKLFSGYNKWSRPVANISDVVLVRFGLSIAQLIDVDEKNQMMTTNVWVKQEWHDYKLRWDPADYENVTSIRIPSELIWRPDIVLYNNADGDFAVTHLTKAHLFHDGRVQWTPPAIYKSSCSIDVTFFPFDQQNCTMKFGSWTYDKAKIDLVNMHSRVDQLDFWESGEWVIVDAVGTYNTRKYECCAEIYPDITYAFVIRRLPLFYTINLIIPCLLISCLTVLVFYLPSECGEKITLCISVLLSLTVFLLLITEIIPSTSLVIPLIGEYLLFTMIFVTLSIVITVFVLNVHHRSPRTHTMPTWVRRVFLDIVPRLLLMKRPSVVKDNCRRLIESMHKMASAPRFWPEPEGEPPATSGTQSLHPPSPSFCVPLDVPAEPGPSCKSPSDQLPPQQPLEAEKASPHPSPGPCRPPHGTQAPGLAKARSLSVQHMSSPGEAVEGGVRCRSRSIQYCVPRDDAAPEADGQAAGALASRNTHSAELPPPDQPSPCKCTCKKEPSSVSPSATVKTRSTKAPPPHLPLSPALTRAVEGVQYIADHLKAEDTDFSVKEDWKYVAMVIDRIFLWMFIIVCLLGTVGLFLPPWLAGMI
Neuronal acetylcholine receptor subunit alpha-7 (Rattus norvegicus, UniProt Q05941), sequence (Q05941 whole entry): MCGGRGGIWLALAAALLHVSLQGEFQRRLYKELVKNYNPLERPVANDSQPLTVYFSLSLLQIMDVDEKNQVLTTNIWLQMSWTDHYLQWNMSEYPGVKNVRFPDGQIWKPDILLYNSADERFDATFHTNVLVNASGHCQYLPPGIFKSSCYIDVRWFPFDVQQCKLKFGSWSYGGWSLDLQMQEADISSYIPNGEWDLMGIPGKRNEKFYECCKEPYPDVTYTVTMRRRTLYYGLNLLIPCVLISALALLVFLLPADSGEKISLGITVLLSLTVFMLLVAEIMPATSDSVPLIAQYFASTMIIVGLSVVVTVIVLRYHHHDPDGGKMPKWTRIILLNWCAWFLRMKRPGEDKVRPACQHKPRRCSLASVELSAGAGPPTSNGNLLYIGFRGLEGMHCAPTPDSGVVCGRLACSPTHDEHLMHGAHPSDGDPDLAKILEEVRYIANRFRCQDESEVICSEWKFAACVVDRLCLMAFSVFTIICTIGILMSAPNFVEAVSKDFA

| Structure (SMILES) | pKa [2] | logP [3] | logD [4] | other results |
| --- | --- | --- | --- | --- |
| [18F]c1ccc(-c2nnc(N3CCN4CCC3CC4)o2)cc1 | 8.44 | 2.34 | -0.82 | Ki [1]: > 10000 nM |
| [18F]c1ccc(OC[C@H]2CCN2)cn1 | 9.01 | 0.66 | -2.02 | Kd [5]: 0.028 nM; Bmax [6]: 3.7 pmol/g |
| [11CH3]c1ccc(OC(=O)N2CCN3CCC2CC3)cc1 | 8.19 | 1.95 | 1.89 | Ki [7]: 22 nM; remaining at 1 h [8]: > 80%; Ki [9]: 14 nM |
| [11CH3]OCc1cccnc1N1CCN(C[C@H]2COc3ccccc3O2)CC1 [ORM-13070 C-11] | 7.23 | 2.51 | 1.94 | Kd [10]: 3.8 nM; Kd [11]: 109 nM; Kd [12]: 23 nM |
| COC(=O)c1cncn1[C@H](C)c1ccc([18F])cc1 | 4.08 | 1.65 | 2.82 | remaining at 1 h [13]: 2%; Drug uptake [14]: 66%; Drug uptake [15]: 39%; remaining at 0.5 h [16]: 8%; remaining at 10 min [17]: 13% |

Reference: ChEMBL document CHEMBL5338767, “A Molecular Toolbox of Positron Emission Tomography Tracers for General Anesthesia Mechanism Research” (J Med Chem, 2023)
